| Structure (SMILES) | melting point [°C] |
| --- | --- |
| Cc1cc(C)c(-n2ccc3c(=O)[nH][nH]c(=O)c32)c(C)c1 | > 300 |
| Cn1cnnc1S(=O)CC(=O)C12CC3CC(CC(C3)C1)C2 (stereo unspecified) | 124 to 127 |
| O=Cc1ccc(OCc2csc(-c3ccccc3)n2)cc1 | 86 to 90 |
| CCCCCCCCCCCCCCCCCNC(=O)O[C@@H]1CCCO[C@H]1COc1cc(CCCCO)on1 (relative stereo) | 86 to 87 |
| Cc1ccc(N2CCN(c3c(C)c(C)c4c(c3C)CC(C)(C)O4)CC2)cc1C | 137 to 139 |
| Cc1ccc2c3c(ccc2n1)OCC(CN1C2CCC1CC(O)(c1ccccc1)C2)O3 (stereo unspecified) | 162 to 165 |
| CCCCCCCCOc1ccc(-c2ccc(C(=O)O[C@@H](C)C(=O)OCCCC)cc2)cc1 | 51 |
| O=C(Nc1ccc(C(=O)Nc2ccc(Cl)cc2)c(O)c1)c1ccc(-c2nc3cc(Cl)c(Cl)cc3[nH]2)cc1 | > 220 |
| CC(C)c1nc(COC2=CCCCC2)n(C)c1Sc1cc(Cl)cc(Cl)c1 | 69 to 71 |
| Cc1cc(C(=O)NC(C)CN(C)CC(C)NC(=O)c2cc(C)cc3nc4ccccc4nc23)c2nc3ccccc3nc2c1 (stereo unspecified) | 75 to 78 |
| C1=CC(n2c(-c3ccc4c(c3)OCO4)nc3ccccc32)CCC1 (stereo unspecified) | 119 to 120 |
| CSCc1nnc2n1-c1sc(Cl)cc1C(c1ccccc1Cl)=NC2 | 200 to 202 |
| c1ccc2c(NC3CCC(Nc4nccc5ccccc45)CC3)nccc2c1 (stereo unspecified) | 278 to 280 |
| Cn1c(=O)c(-c2ccc(Cl)cc2Cl)cc2c3cc(-c4c[nH]nn4)ccc3n(C)c21 | 274 to 275 |
| Cc1ccccc1OCC1COC(Cn2ccnc2)(c2ccc(Cl)cc2Cl)O1 (stereo unspecified) | 138 |
| CNc1ccc(Cl)cc1 | 72 to 74 |
| O=C(O)/C=C\C(=O)NCC(=O)N1c2ccccc2N(Cc2ccccc2)C(=O)[C@H]2CCC[C@H]21 (relative stereo) | 207 to 209 |
| CC(=O)OCc1c(C(=O)C(=O)O)c2cc(-c3ccc(OC(F)(F)F)cc3)ccc2n1Cc1ccc(C)cc1 | 79 to 80 |
| COc1cc2c(cc1OC)C(N1CCN(c3ccc4c(c3)CCC(=O)N4)CC1)=NCC2 | 70 to 75 |
| CC(C)(C)c1ccc(-c2cc(Oc3ccc4[nH]ccc4c3)ncn2)cc1 | 143 to 145 |
| O=C1C(Cc2ccccc2)NC(=S)N1c1ccccc1 (stereo unspecified) | 187 to 189 |
| Nc1nccc(C=Cc2ccccn2)c1[N+](=O)[O-] | 161 to 163 |
| CC(C)(C)OC(=O)N1C[C@@H](P(C2CCCCC2)C2CCCCC2)C[C@H]1CP(c1ccccc1)c1ccccc1 | 171 to 174 |
| C[C@H]1N(C(=O)OCc2ccccc2)COC1(O)c1ccc(OCc2ccccc2)cc1 (stereo partly specified) | 82 to 86 |
| O=C(CCCC1CCCCC1)C1=C(O)COC1=O | 38 to 42 |
| Oc1ccc2c(c1)CCCC(c1ccccc1)=C2c1ccc(OCCCl)cc1 | 238 to 240 |
| O=C1Nc2ccccc2C12COc1cc3c(cc12)N(Cc1ccccn1)CC=N3 (stereo unspecified) | 232 to 233 |
| O=C(CN1C(=O)C(NC(=O)c2cc3ccccc3[nH]2)C(c2ccccc2)Sc2ccccc21)NCCc1ccccc1 (stereo unspecified) | 157 to 163 |
| COc1nc(Cl)c(C(C)C)c(OC)n1 | 23 to 24 |
| CN(Cc1ccccc1)c1nc(N2CCOCC2)nc(-n2c(C(F)F)nc3ccccc32)n1 | 147 to 150 |

Results, then the compound that gave them:

| melting point [°C] | Structure (SMILES) |
| --- | --- |
| 200 to 202 | Nc1ccc(NC(=O)Nc2cccc(C(F)(F)F)c2)c(O)c1 |
| 193 to 196 | COc1ccc2c(c1O)CN(C)C(=O)C2c1cc(OC)c(OC)c(OC)c1 (single isomer, unassigned; (+)) |
| 176 to 177 | CCOC(=O)C(C)(C)OC(=O)c1cc(-n2c(=O)cc(C(F)(F)F)[nH]c2=O)ccc1Cl |
| 133 to 136 | CC(=O)N1CCC(=O)C(C(c2ccccc2)c2ccccc2)C1 (stereo unspecified) |
| 140 to 141 | Cc1ccccc1SCc1c(C(C)C)nc(C(C)C)c(CO)c1-c1ccc(F)cc1 |
| 225 to 230 | O=c1nc2ccccc2c2cc(CO)[nH]n12 |
| 49 to 50 | COc1cccc(-c2c(Cl)cccc2Cl)c1OC |
| 125 to 127 | CC(C)(C)OC(=O)N1CCC(c2c(F)cc(N3C[C@H](CN=[N+]=[N-])OC3=O)cc2F)CC1 |
| 84 to 86 | COC(=O)CS(=O)(=O)Nc1ccc(F)cc1C(F)(F)F |
| 130 to 134 | Cc1ccc(CNc2nc(Nc3cccc(N4CCOCC4)c3)nc(OCC(F)(F)F)n2)o1 |
| 174 to 177 | O=C(CNC(=O)c1ccc(C(=O)C=C(c2cc(Cl)cc(C(F)(F)F)c2)C(F)(F)F)c2ccccc12)NCC(F)(F)F |
| 152 to 153 | CCc1c(C(=O)c2cc(C)cc(C)c2)n(C/C=C/COC(C)=O)c(=O)[nH]c1=O |
| 130 to 132 | CON(C)CCN1C(=O)c2ccccc2C1=O |
| 208 to 210 | CNC(=O)N1CC(Oc2ccc(C(N)=O)cc2)C1 |
| 70 to 75 | O=C(O)CCc1cc2cc(Cl)ccc2n1S(=O)(=O)c1ccc(Oc2ccccc2)cc1 |
| 107 to 108 | O=S(=O)(NCCc1ccc(C(O)CCCO)cc1)c1ccc(Br)cc1 (stereo unspecified) |
| 65 to 68 | COC(=O)CSCNC(=O)c1ccccc1 |
| 136 | CN1CCC(OC(c2cccc(SCCNC(N)=O)c2)c2nc3ccccc3[nH]2)CC1 (stereo unspecified) |

| melting point [°C] | Structure (SMILES) |
| --- | --- |
| 112 to 115 | Cc1noc(NS(=O)(=O)c2ccccc2-c2cccs2)c1C |
| 151 to 152 | O=C1NC(=O)C(Cc2ccc(NC(=O)c3sc(Nc4ccccc4)c4c3CCc3cnoc3-4)cc2)S1 (stereo unspecified) |
| 204 to 205 | COc1nc(C)cnc1NS(=O)(=O)c1cccnc1-c1ccc(OCc2ccc(C(=O)O)cc2)cc1 |
| 130 | CN1C(=O)CCc2cc(S(=O)(=O)Cl)ccc21 |
| 161 | Cc1ccc2c(c1)cc(Cc1ccc(C(=O)O)cc1)n2S(=O)(=O)c1cccc(C(C)(C)C)c1 |
| 218 to 220 | COc1cc(CCC(=O)Nc2cccc(C(=O)O)c2)ccc1O |
| 85.2 | Cc1cc(N)cc(C)c1NC(=O)CN1CCN(CCCC(c2ccc(F)cc2)c2ccc(F)cc2)CC1CO (stereo unspecified) |
| 145 to 147 | COc1ccc(C(=O)OC2CC3C(=O)NC4(C(=O)NS(=O)(=O)C5CC5)CC4C=CCOCCCC(NC(=O)OC(C)(C)C)C(=O)N3C2)cc1 (stereo unspecified) |
| 174 | COC(=O)c1cc(F)ccc1Nc1ccnc2cc(C(F)(F)F)ccc12 |
| 138 to 139 | COC(=O)c1cc(Cl)c(N)cc1O |
| 136 | COc1ccc(-c2cc(COS(C)(=O)=O)c(=O)n(CC=Cc3ccc(Cl)cc3)n2)cc1F |
| 205 | COc1ccc(C(Nc2ccc(C(=N)NO)cc2)C(=O)O)c(OCCO)c1 (racemic) |
| 84 to 86 | C=C(C(=O)NCc1ccccc1)c1ccccc1 |
| 192 to 195 | O=C(C=Cc1cc(O)c(O)c([N+](=O)[O-])c1)c1ccccc1 |
| 134 to 136 | COc1cc(C(=O)Oc2cc(Cl)c(Cl)cc2Cl)ccc1Cc1cn(C)c2ccc([N+](=O)[O-])cc12 |
| 87 to 90 | CC(C)(/C=C\F)C(=O)Nc1ccc(Br)cc1 |
| 124 to 126 | COC(=O)c1cc(C(C)=O)c(O)cc1O |
| 227 to 228 | Cc1nc2c(s1)-c1nc(Nc3cccc([N+](=O)[O-])c3)ncc1CC2 |

Source: a melting point compilation (Tetko et al.; mined from patent text by program, amines drawn as free bases though some values may be those of a salt)
